± gives the expanded uncertainty stated by the source.
Assay: xn = mol fraction of the nth substance listed
Details: 101.3 kPa, Liquid; for viscosity: Falling or rolling sphere viscometry; for mass density: Vibrating tube method

CCCC[n+]1ccn(C)c1.O=S(=O)([N-]S(=O)(=O)C(F)(F)F)C(F)(F)F + CCOC(=O)OCC
Details	mass density [kg/m3]	viscosity [mPa·s]
288.15 K, x1 = 0.1025	1086.84 ± 2.6	2.12 ± 0.048
288.15 K, x1 = 0.2198	1177.9 ± 2.9	4.415 ± 0.099
288.15 K, x1 = 0.3178	1236.57 ± 3	7.583 ± 0.17
288.15 K, x1 = 0.4211	1285.86 ± 3.1	13.26 ± 0.29
288.15 K, x1 = 0.5268	1327.09 ± 3.2	20.12 ± 0.45
288.15 K, x1 = 0.622	1358.33 ± 3.3	28.36 ± 0.63
288.15 K, x1 = 0.7193	1385.68 ± 3.4	38.93 ± 0.86
288.15 K, x1 = 0.8139	1408.25 ± 3.4	50.88 ± 1.1
288.15 K, x1 = 0.9088	1428.49 ± 3.5	64.94 ± 1.5
288.15 K, x1 = 1	1445.66 ± 3.5	78.02 ± 2
293.15 K, x1 = 0.1025	1081.45 ± 2.6	1.928 ± 0.043
293.15 K, x1 = 0.2198	1172.7 ± 2.9	3.925 ± 0.086
293.15 K, x1 = 0.3178	1231.47 ± 3	6.526 ± 0.14
293.15 K, x1 = 0.4211	1280.83 ± 3.1	11.18 ± 0.25
293.15 K, x1 = 0.5268	1322.13 ± 3.2	17.25 ± 0.38
293.15 K, x1 = 0.622	1353.42 ± 3.3	23.42 ± 0.52
293.15 K, x1 = 0.7193	1380.79 ± 3.4	31.68 ± 0.7
293.15 K, x1 = 0.8139	1403.38 ± 3.4	40.79 ± 0.91
293.15 K, x1 = 0.9088	1423.65 ± 3.5	51.44 ± 1.1
293.15 K, x1 = 1	1440.84 ± 3.5	61.32 ± 1.4
298.15 K, x1 = 0.1025	1076.05 ± 2.6	1.764 ± 0.039
298.15 K, x1 = 0.2198	1167.48 ± 2.8	3.517 ± 0.077
298.15 K, x1 = 0.3178	1226.35 ± 3	5.739 ± 0.13
298.15 K, x1 = 0.4211	1275.8 ± 3.1	9.492 ± 0.21
298.15 K, x1 = 0.5268	1317.16 ± 3.2	14.77 ± 0.33
298.15 K, x1 = 0.622	1348.49 ± 3.3	19.58 ± 0.43
298.15 K, x1 = 0.7193	1375.9 ± 3.3	26.16 ± 0.58
298.15 K, x1 = 0.8139	1398.52 ± 3.4	33.25 ± 0.74
298.15 K, x1 = 0.9088	1418.81 ± 3.5	41.43 ± 0.92
298.15 K, x1 = 1	1436.01 ± 3.5	48.93 ± 1.1
303.15 K, x1 = 0.1025	1070.65 ± 2.6	1.618 ± 0.036
303.15 K, x1 = 0.2198	1162.26 ± 2.8	3.168 ± 0.07
303.15 K, x1 = 0.3178	1221.23 ± 3	5.085 ± 0.11
303.15 K, x1 = 0.4211	1270.77 ± 3.1	8.179 ± 0.18
303.15 K, x1 = 0.5268	1312.2 ± 3.2	12.6 ± 0.28
303.15 K, x1 = 0.622	1343.58 ± 3.3	17.03 ± 0.37
303.15 K, x1 = 0.7193	1371.04 ± 3.3	21.88 ± 0.48
303.15 K, x1 = 0.8139	1393.68 ± 3.4	27.57 ± 0.61
303.15 K, x1 = 0.9088	1413.97 ± 3.4	34.06 ± 0.75
303.15 K, x1 = 1	1431.21 ± 3.5	39.84 ± 0.88
308.15 K, x1 = 0.1025	1065.23 ± 2.6	1.492 ± 0.033
308.15 K, x1 = 0.2198	1157.03 ± 2.8	2.873 ± 0.063
308.15 K, x1 = 0.3178	1216.12 ± 3	4.539 ± 0.1
308.15 K, x1 = 0.4211	1265.74 ± 3.1	7.219 ± 0.16
308.15 K, x1 = 0.5268	1307.25 ± 3.2	10.76 ± 0.24
308.15 K, x1 = 0.622	1338.67 ± 3.2	14.69 ± 0.32
308.15 K, x1 = 0.7193	1366.17 ± 3.3	18.7 ± 0.41
308.15 K, x1 = 0.8139	1388.84 ± 3.4	23.2 ± 0.51
308.15 K, x1 = 0.9088	1409.18 ± 3.4	28.32 ± 0.63
308.15 K, x1 = 1	1426.43 ± 3.5	32.91 ± 0.73
313.15 K, x1 = 0.1025	1059.8 ± 2.6	1.385 ± 0.031
313.15 K, x1 = 0.2198	1151.8 ± 2.8	2.614 ± 0.057
313.15 K, x1 = 0.3178	1210.99 ± 2.9	3.977 ± 0.088
313.15 K, x1 = 0.4211	1260.71 ± 3.1	6.414 ± 0.14
313.15 K, x1 = 0.5268	1302.3 ± 3.2	9.287 ± 0.2
313.15 K, x1 = 0.622	1333.78 ± 3.2	12.63 ± 0.28
313.15 K, x1 = 0.7193	1361.32 ± 3.3	16.35 ± 0.36
313.15 K, x1 = 0.8139	1384.01 ± 3.4	19.64 ± 0.43
313.15 K, x1 = 0.9088	1404.39 ± 3.4	23.69 ± 0.52
313.15 K, x1 = 1	1421.66 ± 3.5	27.56 ± 0.61
318.15 K, x1 = 0.1025	1054.35 ± 2.6	1.286 ± 0.028
318.15 K, x1 = 0.2198	1146.57 ± 2.8	2.391 ± 0.052
318.15 K, x1 = 0.3178	1205.88 ± 2.9	3.591 ± 0.079
318.15 K, x1 = 0.4211	1255.69 ± 3	5.815 ± 0.13
318.15 K, x1 = 0.5268	1297.36 ± 3.1	8.069 ± 0.18
318.15 K, x1 = 0.622	1328.9 ± 3.2	10.92 ± 0.24
318.15 K, x1 = 0.7193	1356.48 ± 3.3	14.18 ± 0.31
318.15 K, x1 = 0.8139	1379.19 ± 3.4	16.89 ± 0.37
318.15 K, x1 = 0.9088	1399.6 ± 3.4	20.05 ± 0.44
318.15 K, x1 = 1	1416.91 ± 3.4	23.33 ± 0.51
323.15 K, x1 = 0.1025	1048.88 ± 2.6	1.198 ± 0.026
323.15 K, x1 = 0.2198	1141.33 ± 2.8	2.194 ± 0.048
323.15 K, x1 = 0.3178	1200.77 ± 2.9	3.259 ± 0.072
323.15 K, x1 = 0.4211	1250.68 ± 3	5.216 ± 0.11
323.15 K, x1 = 0.5268	1292.44 ± 3.1	7.105 ± 0.16
323.15 K, x1 = 0.622	1324.02 ± 3.2	9.492 ± 0.21
323.15 K, x1 = 0.7193	1351.66 ± 3.3	12.28 ± 0.27
323.15 K, x1 = 0.8139	1374.39 ± 3.3	14.6 ± 0.32
323.15 K, x1 = 0.9088	1394.85 ± 3.4	17.26 ± 0.38
323.15 K, x1 = 1	1412.17 ± 3.4	19.97 ± 0.44
328.15 K, x1 = 0.1025	1043.4 ± 2.6	1.117 ± 0.025
328.15 K, x1 = 0.2198	1136.07 ± 2.8	2.025 ± 0.044
328.15 K, x1 = 0.3178	1195.65 ± 2.9	2.978 ± 0.065
328.15 K, x1 = 0.4211	1245.68 ± 3	4.71 ± 0.1
328.15 K, x1 = 0.5268	1287.5 ± 3.1	6.138 ± 0.14
328.15 K, x1 = 0.622	1319.16 ± 3.2	8.288 ± 0.18
328.15 K, x1 = 0.7193	1346.84 ± 3.3	10.66 ± 0.24
328.15 K, x1 = 0.8139	1369.58 ± 3.3	12.69 ± 0.28
328.15 K, x1 = 0.9088	1390.1 ± 3.4	15 ± 0.33
328.15 K, x1 = 1	1407.45 ± 3.4	17.41 ± 0.38
